We go through eight molecules from PMC8531085, “Proton Pump Inhibitors Inhibit PHOSPHO1 Activity and Matrix Mineralisation In Vitro” (Calcified Tissue International, 2021).

Values joined by “and” are separate entries in the source; they are usually repeats but may differ in a detail not shown here. Identical values can stand only once. “Also recorded” adds a separate entry of the source.

The target in test [1] is T1, Recombinant human PHOSPHO1 (Homo sapiens, UniProt Q8TCT1).
T1 construct: made in house
T1 sequence (Q8TCT1 1-267): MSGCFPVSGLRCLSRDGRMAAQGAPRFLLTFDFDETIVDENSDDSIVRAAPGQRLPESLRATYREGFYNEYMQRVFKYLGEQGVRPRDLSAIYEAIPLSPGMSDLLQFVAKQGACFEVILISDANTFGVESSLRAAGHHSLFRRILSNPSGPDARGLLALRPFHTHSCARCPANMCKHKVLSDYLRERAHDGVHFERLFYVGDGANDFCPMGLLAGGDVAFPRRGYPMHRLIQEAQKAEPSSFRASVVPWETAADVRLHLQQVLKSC
Briefly: PHOSPHO1 phosphatase assay (BIOMOL Green, β-glycerol phosphate). The test is classed as biochemical. Particulars: for Inhibition of PHOSPHO1 activity (in words): all concentrations tested (0-100 µM); for IC50: recombinant human PHOSPHO1 50 ng, 0-100 µM, 2.5 mM β-glycerol phosphate, read-out: IC50, inhibition of PHOSPHO1 activity. Here is the method:
Recombinant human PHOSPHO1 (50 ng) was generated as previously described and incubated with varying concentrations of the aforementioned PPIs and […] in experimental assay buffer (20 mM Tris, 2 mM MgCl2 & 25 μg/ml BSA) at 37 °C for 15 min. Using the BIOMOL® Green assay (Enzo, Exeter, UK), standards (0-2 nM) and samples were then incubated with 2.5 mM β-glycerol phosphate for 30 min at 37 °C with gentle agitation. The reaction was stopped using 100 μl BIOMOL® Green and after being left for 30 min at room temperature, the absorbance was read using spectrophotometry at 630 nm. […] Using the BIOMOL® Green assay, standards (0-2 nM) and samples were then incubated with 0.5 mM p-nitrophenyl phosphate (pNPP) for 30 min at 37 °C with gentle agitation. The reaction was stopped using 100 μl BIOMOL® Green and after being left for 30 min at room temperature, the absorbance was read using spectrophotometry at 630 nm.

Test [2] relates to Primary calvarial osteoblasts. Nature of the test: Primary osteoblast matrix mineralisation (Alizarin red, 28 days). The test is classed as cell-based, mice. Here is the method:
Primary calvarial osteoblasts were obtained from 4-day-old wild-type C57Bl/6 mice. Primary osteoblasts were isolated by sequential enzyme digestion of excised calvarial bones using a four-step process as has previously been described [1 mg/ml collagenase type II in Hanks’ balanced salt solution (HBSS) for 10 min; 1 mg/ml collagenase type II in HBSS for 30 min; 4 mM EDTA for 10 min; 1 mg/ml collagenase type II in HBSS for 30 min]. The first digest was discarded and the cells were re-suspended in growth medium consisting of a-MEM (Invitrogen, Paisley, UK) supplemented with 10% (v/v) FBS and 1% gentamycin (Invitrogen). Osteoblasts were seeded at a density of 1 × 10^4 cells/cm^2 and grown to confluency at which point 2 mM β-glycerophosphate and 50 µg/ml ascorbic acid was added along with a PPI (0–50 µM) as described in the results. Media was changed every 2–3 days for the duration of the 28-day experiments. After 28 days, primary cell cultures were fixed in 4% paraformaldehyde for 5 min at room temperature. Cell monolayers were stained with aqueous 2% (w/v) Alizarin red solution for 5 min at room temperature. The bound stain was solubilised in 10% cetylpyridinium chloride and the optical density of the resultant eluted solution measured by spectrophotometry at 570 nm.

The target in a further test is T2, recombinant human TNAP (Homo sapiens, UniProt P05186).
T2 construct: purchased R&D Systems
T2 sequence (P05186 18-524): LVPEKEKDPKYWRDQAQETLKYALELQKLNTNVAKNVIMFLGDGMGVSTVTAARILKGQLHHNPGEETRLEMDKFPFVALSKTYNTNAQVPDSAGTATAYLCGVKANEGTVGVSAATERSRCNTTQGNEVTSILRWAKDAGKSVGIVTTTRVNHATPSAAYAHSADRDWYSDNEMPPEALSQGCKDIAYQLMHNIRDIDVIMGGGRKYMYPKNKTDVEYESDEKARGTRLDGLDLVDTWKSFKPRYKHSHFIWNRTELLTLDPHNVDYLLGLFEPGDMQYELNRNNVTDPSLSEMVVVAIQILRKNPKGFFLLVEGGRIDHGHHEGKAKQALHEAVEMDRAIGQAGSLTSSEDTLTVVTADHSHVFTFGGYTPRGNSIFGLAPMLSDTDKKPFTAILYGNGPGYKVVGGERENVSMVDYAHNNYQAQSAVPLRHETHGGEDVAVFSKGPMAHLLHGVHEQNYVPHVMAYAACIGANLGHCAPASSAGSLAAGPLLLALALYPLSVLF
Briefly: TNAP phosphatase assay (BIOMOL Green, pNPP). Particulars: all concentrations tested (0-100 µM). The test is classed as biochemical. The protocol: Recombinant human PHOSPHO1 (50 ng) was generated as previously described and incubated with varying concentrations of the aforementioned PPIs and H2RAs in experimental assay buffer (20 mM Tris, 2 mM MgCl2 & 25 µg/ml BSA) at 37 °C for 15 min. Using the BIOMOL® Green assay (Enzo, Exeter, UK), standards (0-2 nM) and samples were then incubated with 2.5 mM β-glycerol phosphate for 30 min at 37 °C with gentle agitation. The reaction was stopped using 100 µl BIOMOL® Green and after being left for 30 min at room temperature, the absorbance was read using spectrophotometry at 630 nm. For TNAP, 2 ng recombinant human TNAP (R&D Systems, Abington, UK), was incubated with varying concentrations of the aforementioned PPIs and H2RAs in experimental assay buffer (1 M diethylamine hydrochloride, 1 mM MgCl2 and 20 µM ZnCl2). Using the BIOMOL® Green assay, standards (0-2 nM) and samples were then incubated with 0.5 mM p-nitrophenyl phosphate (pNPP) for 30 min at 37 °C with gentle agitation. The reaction was stopped using 100 µl BIOMOL® Green and after being left for 30 min at room temperature, the absorbance was read using spectrophotometry at 630 nm.

For another test, the system named is osteoblasts. Also on record: method as in PMID 23937530. Particulars: cited from earlier work.
Test [3] concerns tissue non-specific alkaline phosphatase (TNAP). Also on record: method as in PMID 17227223. Particulars: cited from earlier work.
Another test deals with osteoblast MV. Particulars: cited from earlier work.
A further test concerns developing chick embryos. Also on record: method as in PMID 20053388. Particulars: administration to developing chick embryos; cited from earlier work.
The target in test [4] is T1, Recombinant human PHOSPHO1. Also on record: method as in PMID 17227223. Particulars: non-competitive; cited from earlier work.
A further test concerns rodents. Also on record: method as in PMID 11589371, PMID 26229922. Particulars: rodents administered the drug; cited from earlier work.
The test system of a further test is healthy subjects. Particulars: short-term treatment; cited from earlier work.

In the case of `NC(N)=Nc1nc(CSCCC(N)=NS(N)(=O)=O)cs1` [famotidine], the “Inhibition of PHOSPHO1 activity (in words)” value in [1] is listed as “no inhibitory effects; also recorded: no inhibition”.

As usually defined, the IC50 is the concentration that gives 50% inhibition. With `COc1ccnc(C[S+]([O-])c2nc3ccc(OC(F)F)cc3[nH]2)c1OC` (centres unmarked) [pantoprazole], the “Matrix mineralisation (Alizarin red)” value in test [2] (5 µM) is “not sufficient to inhibit matrix mineralisation”; in test [2] (10 µM), “not sufficient to inhibit matrix mineralisation”; in [2] (50 µM) it was “significant decrease in matrix mineralisation”. Also, the IC50 in test [1] is 19300 nM. For the same molecule, at recombinant human TNAP, the “Inhibition of TNAP activity (in words)” value is listed as “did not inhibit”.

Consider `Cc1c(OCC(F)(F)F)ccnc1C[S+]([O-])c1nc2ccccc2[nH]1` (centres unmarked) [lansoprazole], for which the “Ability of osteoblasts to mineralise their matrix” value (shortened to “Ability of osteoblasts”) in the test with osteoblasts is recorded as “decreased the ability of osteoblasts to mineralise their matrix”. Also, the “Matrix mineralisation (Alizarin red)” value in test [2] (5 µM) is given as “significantly decreased matrix mineralisation”. For the same molecule, the “Matrix mineralisation (Alizarin red)” value in [2] (10 µM) is “significantly decreased matrix mineralisation”. In [3], the “Effect on TNAP activity” value is on record as “no effect”. Besides, the IC50 in test [1] amounted to 2770 nM. In addition, in the test on osteoblast MV, the “Inhibition of osteoblast MV calcification” value was 57% and the “Mineralisation of MVs isolated from osteoblasts” value was “impairs their mineralisation”. Further, the “Inhibition of TNAP activity (in words)” value on recombinant human TNAP is reported as “did not inhibit”. For the same molecule, the “Mineralisation of leg and wing long bones” value with developing chick embryos is listed as “completely inhibited mineralisation”. In addition, the “Inhibition of recombinant human PHOSPHO1 activity” value in test [4] is reported as “over 70%”.

Consider `CNC(=C[N+](=O)[O-])NCCSCc1ccc(CN(C)C)o1` [ranitidine], for which, in [1], the “Inhibition of PHOSPHO1 activity (in words)” value was “no inhibitory effects; also recorded: no inhibition”.

As to `CN/C(=N/CCSCc1nc[nH]c1C)NC#N` [cimetidine], the “Inhibition of PHOSPHO1 activity (in words)” value in test [1] was “no inhibitory effects; also recorded: no inhibition”.

In the case of `CNC(=C[N+](=O)[O-])NCCSCc1csc(CN(C)C)n1` [nizatidine], the “Inhibition of PHOSPHO1 activity (in words)” value in test [1] was “no inhibitory effects; also recorded: no inhibition”.

Consider `COc1ccc2nc([S@@+]([O-])Cc3ncc(C)c(OC)c3C)[nH]c2c1` [esomeprazole], for which the “Ability of osteoblasts” value in the test with osteoblasts is “decreased the ability of osteoblasts to mineralise their matrix”. Besides, in test [2] (10 µM), the “Matrix mineralisation (Alizarin red)” value is listed as “significantly inhibited matrix mineralisation”. For the same molecule, in test [1], the IC50 was 730 nM and 726 nM. The “Inhibition of TNAP activity (in words)” value at recombinant human TNAP was “did not inhibit”.

On to `COc1ccc2[nH]c([S+]([O-])Cc3ncc(C)c(OC)c3C)nc2c1` (centres unmarked) [omeprazole], for which, in the test on osteoblasts, the “Ability of osteoblasts” value is “decreased the ability of osteoblasts to mineralise their matrix”. In the test on rodents, the “Bone mineral content and BMD” value was “reduced bone mineral content and BMD”. Besides, the “Effect on calcium absorption” value in the test with healthy subjects is given as “not found to have inhibitory effects”. The “Matrix mineralisation (Alizarin red)” value in [2] (10 µM) is listed as “significantly inhibited matrix mineralisation”. The IC50 in [1] was 2800 nM. Also, on recombinant human TNAP, the “Inhibition of TNAP activity (in words)” value is reported as “did not inhibit”.
